Where a SMILES comes first, the peptide text is derived from it.
COC(=O)[C@H](Cc1ccccc1)NC(=O)[C@@H](N)CC(=O)O (H-Asp-Phe-OMe)
solubility (mole fraction)
Conditions | in ethanol | in methanol | in water
278.15 K | 3.16e-05 | 0.000532 | 0.000338
283.15 K | 4.53e-05 | 0.000593 | 0.000408
288.15 K | 6.19e-05 | 0.000665 | 0.000483
293.15 K | 8.48e-05 | 0.00074 | 0.000581
298.15 K | 0.000113 | 0.000832 | 0.000701
303.15 K | 0.000144 | 0.000939 | 0.000836
308.15 K | 0.000187 | 0.00107 | 0.00102
313.15 K | 0.000236 | 0.0012 | 0.00123
318.15 K | 0.000291 | 0.00136 | 0.0015
323.15 K | 0.000347 | 0.00155 | 0.00182
328.15 K | 0.000418 | 0.00175 | 0.00224
333.15 K | 0.000493 | 0.002 | 0.00274
